Measurements: US20240132524A1, “SMALL MOLECULES FOR BORON NEUTRON CAPTURE THERAPY” (Aviko Radiopharmaceuticals, LLC, priority 2022, published 2024)
“And” between values parts separate entries of the source, which are not always exact repeats. Equal entries are not always repeated.

Key:
Conditions in all cases: 0.1 mM
U87-MG (glioblastoma) = test: Cell uptake assay in U87-MG cells; type: cell-based, human
Protocol: (§1) • 1.1.1 15 mL of cell culture medium was placed into a T225 flask. • 1.1.2 The flask was placed in a humidified 37° C., 5% CO2 incubator for 15 minutes to allow medium to equilibrate to the proper pH and temperature. • 1.1.3 The vial was removed from liquid nitrogen and thawed rapidly by placing at 37° C. in a water bath with gentle agitation for 1-2 minutes and then decontaminated by wiping with 70% ethanol before opening in a Class II biological safety cabinet. • 1.1.4 The vial contents were transferred dropwise into 10 mL of cell culture medium in a sterile 15 mL conical tube. • 1.1.5 The cells were centrifuged at 1,300 rpm for 5 minutes. • 1.1.6 The supernatant was aspirated and re-suspended the cells and transferred the cells into T225 flask containing cell culture medium.
(§2) • 1.2.1 Culture medium were renewed every 2-3 days. • 1.2.2 Keep the flask in a humidified 37° C., 5% CO2 incubator
Cells were harvested and diluted in culture medium to the designated concentration. Then the cells were cultured in T25 flasks, one T25 flask for one sample. 2.2 Formulation of test compounds • 2.2.1 L-Boronophenylalanine (L-BPA, 4-boron-L-phenylalanine, Purity: 95%, Chemical formula: C9H12BNO4, MW: 209.01, CAS: 76410-58-7) and fructose were dissolved in PBS at a molar ratio of 1:5, and then a 1.27 M ratio of 1 N NaOH is added. The mixture was stirred until L-BPA is completely dissolved, and the pH value was titrated to 7.2-7.4 with 1N HCl. • 2.2.2 For test compounds other than BPA, stock solutions were prepared of each compound in DMSO or fructose formulation at a concentration of 20 mM (such that final % DMSO in the cellular assay medium=0.5%) […]

SAS (head & neck cancer) = test: Cell uptake assay in SAS cells; type: cell-based, human
Protocol: as §1, §2
(§3) Cells were harvested and diluted in culture medium to the designated concentration. Then the cells were cultured in T25 flasks, one T25 flask for one sample. 2.2 Formulation of test compounds • 2.2.1 L-Boronophenylalanine (L-BPA, 4-boron-L-phenylalanine, Purity: 95%, Chemical formula: C9H12BNO4, MW: 209.01, CAS: 76410-58-7) and fructose were dissolved in PBS at a molar ratio of 1:5, and then a 1.27 M ratio of 1 N NaOH is added. The mixture was stirred until L-BPA is completely dissolved, and the pH value was titrated to 7.2-7.4 with 1N HCl. • 2.2.2 For test compounds other than BPA, stock solutions were prepared of each compound in DMSO or fructose formulation at a concentration of 20 mM (such that final % DMSO in the cellular assay medium=0.5%)
(§4) • 2.3.1 The cells were seeded overnight (12-18 hours) to allow the cells to adhere well. • 2.3.2 The stock solution of each compound was added to each T25 flask such that the final concentration for each compound is 100 uM (0.1 mM). • 2.3.3 The flasks were placed in a 37° C., […] for 1 hour, 4 hour, and 24 hours, the cells were collected by using 0.25% Trypsin with 0.53 mM EDTA. 2.3.5 Centrifuged at 1,300 rpm for 5 min to collect cell pellets.

[1] = tested on: NIH-3T3 (normal cell line); test: Cell uptake assay in NIH-3T3 cells; type: cell-based, mouse
Protocol: as §1, §2, §3, §4

B16F10 (melanoma) = test: Cell uptake assay in B16F10 cells; type: cell-based, mouse
Protocol: as §1, §2, §3, §4

Row | Structure (SMILES) | Cell uptake, Mean (ng/10^6 cell), U87-MG (U87-MG (glioblastoma); 1 h) | Cell uptake, Mean (ng/10^6 cell), U87-MG (U87-MG (glioblastoma); 4 h) | Cell uptake, Mean (ng/10^6 cell), U87-MG (U87-MG (glioblastoma); 24 h) | Cell uptake, Mean (ng/10^6 cell), SAS (SAS (head & neck cancer); 1 h) | Cell uptake, Mean (ng/10^6 cell), SAS (SAS (head & neck cancer); 4 h) | Cell uptake, Mean (ng/10^6 cell), SAS (SAS (head & neck cancer); 24 h) | Cell uptake, Mean (ng/10^6 cell), NIH-3T3 ([1]; 1 h) | Cell uptake, Mean (ng/10^6 cell), NIH-3T3 ([1]; 4 h) | Cell uptake, Mean (ng/10^6 cell), NIH-3T3 ([1]; 24 h) | Cell uptake, Mean (ng/10^6 cell), B16F10 (B16F10 (melanoma); 1 h) | Cell uptake, Mean (ng/10^6 cell), B16F10 (B16F10 (melanoma); 4 h) | Cell uptake, Mean (ng/10^6 cell), B16F10 (B16F10 (melanoma); 24 h) | Cell uptake, Mean (ng/10^6 cell), U87-MG (U87-MG (glioblastoma); 2 h) | Cell uptake, Mean (ng/10^6 cell), SAS (SAS (head & neck cancer); 2 h) | Cell uptake, Mean (ng/10^6 cell), NIH-3T3 ([1]; 2 h) | Cell uptake, Mean (ng/10^6 cell), B16F10 (B16F10 (melanoma); 2 h)
1 | N[C@@H](Cc1cc(Cl)cc(B(O)O)c1O)C(=O)O [Compound 6, (2S)-2-amino-3-[5-chloro-3-(dihydroxyboranyl)-2-hydroxyphenyl]propanoic acid] | 58.6 ng/10^6 cell | 171 ng/10^6 cell | 244 ng/10^6 cell | 373 ng/10^6 cell | 796 ng/10^6 cell | 1735 ng/10^6 cell | 20.3 ng/10^6 cell | 59.8 ng/10^6 cell | 50.8 ng/10^6 cell | 39.6 ng/10^6 cell | 75.9 ng/10^6 cell | 222 ng/10^6 cell | – | – | – | –
2 | N[C@@H](Cc1ccc(B(O)O)cc1)C(=O)O [L-BPA, 4-Borono-L-phenylalanine] | 391 ng/10^6 cell and 343 ng/10^6 cell and 233 ng/10^6 cell and 196 ng/10^6 cell and 297 ng/10^6 cell | – | – | 425 ng/10^6 cell and 407 ng/10^6 cell and 260 ng/10^6 cell and 254 ng/10^6 cell and 218 ng/10^6 cell | 379 ng/10^6 cell and 352 ng/10^6 cell and 251 ng/10^6 cell and 219 ng/10^6 cell and 217 ng/10^6 cell | 423 ng/10^6 cell and 444 ng/10^6 cell and 501 ng/10^6 cell and 261 ng/10^6 cell and 345 ng/10^6 cell and 336 ng/10^6 cell | – | – | – | – | 247 ng/10^6 cell and 224 ng/10^6 cell and 188 ng/10^6 cell and 191 ng/10^6 cell and 185 ng/10^6 cell | – | 223 ng/10^6 cell | 394 ng/10^6 cell | 177 ng/10^6 cell | 986 ng/10^6 cell
3 | N[C@@H](Cc1ccc(F)c(B(O)O)c1O)C(=O)O [Compound 4, (2S)-2-amino-3-[3-(dihydroxyboranyl)-4-fluoro-2-hydroxyphenyl]propanoic acid] | 14.3 ng/10^6 cell | 40 ng/10^6 cell | 117 ng/10^6 cell | 33.1 ng/10^6 cell | 191 ng/10^6 cell | 886 ng/10^6 cell | 28.3 ng/10^6 cell | 36.9 ng/10^6 cell | 55.3 ng/10^6 cell | 29.5 ng/10^6 cell | 39.1 ng/10^6 cell | 48.1 ng/10^6 cell | – | – | – | –
4 | N[C@@H](Cc1cccc(B(O)O)c1O)C(=O)O [Comparator Compound B, reference compound] | 380 ng/10^6 cell | 519 ng/10^6 cell | 250 ng/10^6 cell | 510 ng/10^6 cell | 487 ng/10^6 cell | 1465 ng/10^6 cell | 186 ng/10^6 cell | 122 ng/10^6 cell | 217 ng/10^6 cell | 131 ng/10^6 cell | 248 ng/10^6 cell | 662 ng/10^6 cell | – | – | – | –
